The target in experiment [1] is T1, Cop6 (Coprinopsis cinerea, UniProt A8NCK5, N224D). Description: product profile by GC-MS. As to conditions: turnover only. Format: biochemical.
The target of experiment [2] is T1, Cop6. Description: product analysis by chiral GC-MS. The experiment is classed as biochemical. As to conditions: purified mutant; turnover only.

The values that follow come from PMC2873112 (Chembiochem : a European journal of chemical biology, 2010).

T1 sequence (A8NCK5 whole entry N224D): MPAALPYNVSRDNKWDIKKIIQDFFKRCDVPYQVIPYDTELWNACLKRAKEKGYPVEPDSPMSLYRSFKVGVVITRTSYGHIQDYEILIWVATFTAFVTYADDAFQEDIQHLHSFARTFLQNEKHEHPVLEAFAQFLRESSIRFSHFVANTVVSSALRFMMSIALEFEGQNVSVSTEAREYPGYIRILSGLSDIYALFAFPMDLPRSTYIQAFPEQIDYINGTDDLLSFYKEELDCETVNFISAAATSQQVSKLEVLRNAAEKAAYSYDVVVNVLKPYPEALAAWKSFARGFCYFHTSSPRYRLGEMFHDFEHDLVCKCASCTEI

Consider `CC(C)=CCC/C(C)=C/CC/C(C)=C/COP(=O)(O)OP(=O)(O)O` [(E,E)-FPP], for which the “product profile by GC-MS” value at Cop6 [1] is “N224D does not affect the product profile of Cop6 with its normal substrate (E,E)-FPP”.
On to `CC(C)=CCC/C(C)=C/CC/C(C)=C\COP(=O)(O)OP(=O)(O)O` [(Z,E)-FPP], for which the “product analysis by chiral GC-MS” value on Cop6 [2] is “Mutant Cop6N224D now makes a small amount of an additional compound”.
